Converted amounts (≈) assume the structure as drawn.
Tests used:
[1] = molecular target: Metabotropic glutamate receptor 5 (Homo sapiens, UniProt P41594); test: Antagonist activity at human mGluR5 expressed in CHO cells assessed as increase in intracellular calcium level by FLIPR; assay type: functional, cell-based
[2] = Solubility at pH 7.4; assay type: physicochemical; conditions: buffer

Chain of Metabotropic glutamate receptor 5 (P41594 whole entry): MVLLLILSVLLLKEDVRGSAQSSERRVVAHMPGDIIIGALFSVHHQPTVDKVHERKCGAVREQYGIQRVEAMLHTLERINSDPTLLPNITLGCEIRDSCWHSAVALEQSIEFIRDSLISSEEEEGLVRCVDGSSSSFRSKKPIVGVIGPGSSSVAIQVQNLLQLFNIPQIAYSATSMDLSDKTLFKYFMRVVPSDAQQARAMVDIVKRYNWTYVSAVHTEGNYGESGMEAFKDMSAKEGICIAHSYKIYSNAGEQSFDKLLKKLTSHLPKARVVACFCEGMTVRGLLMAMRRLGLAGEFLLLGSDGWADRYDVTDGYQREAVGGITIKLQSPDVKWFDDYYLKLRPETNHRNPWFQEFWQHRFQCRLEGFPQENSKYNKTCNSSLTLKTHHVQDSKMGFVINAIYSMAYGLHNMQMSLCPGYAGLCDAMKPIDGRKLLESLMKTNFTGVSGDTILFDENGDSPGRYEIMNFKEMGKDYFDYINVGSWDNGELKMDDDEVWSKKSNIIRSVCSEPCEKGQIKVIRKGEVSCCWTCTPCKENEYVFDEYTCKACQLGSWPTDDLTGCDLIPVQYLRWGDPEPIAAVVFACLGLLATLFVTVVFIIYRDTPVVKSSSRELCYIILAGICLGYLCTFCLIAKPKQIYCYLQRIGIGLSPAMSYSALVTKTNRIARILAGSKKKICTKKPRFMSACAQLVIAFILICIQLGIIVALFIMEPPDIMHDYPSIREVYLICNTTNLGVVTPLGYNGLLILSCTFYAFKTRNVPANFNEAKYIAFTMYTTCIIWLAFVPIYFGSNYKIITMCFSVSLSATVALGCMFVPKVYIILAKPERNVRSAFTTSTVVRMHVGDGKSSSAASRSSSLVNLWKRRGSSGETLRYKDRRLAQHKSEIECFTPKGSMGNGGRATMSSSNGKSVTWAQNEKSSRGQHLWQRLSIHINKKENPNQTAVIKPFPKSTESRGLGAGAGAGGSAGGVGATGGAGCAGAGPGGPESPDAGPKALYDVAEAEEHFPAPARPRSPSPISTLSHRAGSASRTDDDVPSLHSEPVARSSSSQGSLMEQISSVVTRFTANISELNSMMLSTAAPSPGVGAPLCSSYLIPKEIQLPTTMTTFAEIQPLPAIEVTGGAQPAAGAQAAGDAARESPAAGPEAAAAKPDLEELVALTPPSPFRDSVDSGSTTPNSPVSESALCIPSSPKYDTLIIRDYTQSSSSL

In the case of `Cc1cn2cc(C(=O)N3CCCC3C)cc2c(C#Cc2ccsc2)n1` (configuration not stated), the IC50 [1] is reported as 39.8 nM.

Work on `Cc1cn2cc(C(F)(F)F)cc2c(C#Cc2cccs2)n1` yielded an IC50 [1] of 63.1 nM.

Work on `Cc1cn2cc(C#N)cc2c(C#Cc2cccc(F)c2)n1` yielded an IC50 [1] of 0.794 nM.

Work on `Cc1cccc(C#Cc2nc(C)cn3cccc23)c1` yielded an IC50 [1] of 0.398 nM.

For `Cc1cn2cc(C(=O)N3CCC(F)(F)C3)cc2c(C#Cc2ccsc2)n1`, the IC50 [1] was 126 nM.

Work on `Cc1cn2cc(C(=O)N3CCCCC3C)cc2c(C#Cc2ccsc2)n1` (configuration not stated) yielded an IC50 [1] of 100 nM.

Molecule `Cc1cn2cc(C(=O)N3CCN(C)CC3)cc2c(C#Cc2cccc(C(F)(F)F)c2)n1` has an IC50 [1] of 251 nM.

Work on `Cc1cn2cc(C(F)(F)F)cc2c(C#Cc2cccc(-c3ccsc3)c2)n1` yielded an IC50 [1] of 5010 nM.

`Cc1cn2cc(C(F)(F)F)cc2c(C#Cc2ccc(C#N)cc2)n1` gave an IC50 [1] greater than 15800 nM.

In the case of `Cc1cn2cc(C(F)(F)F)cc2c(C#Cc2ccc(C(F)(F)F)cc2)n1`, the IC50 [1] is reported as greater than 15800 nM.

`Cc1cc2c(C#Cc3ccc(C(F)(F)F)cc3)nc(C)cn2c1` showed an IC50 [1] greater than 15800 nM.

`Cc1cn2cc(C(F)(F)F)cc2c(C#Cc2ccc(NS(C)(=O)=O)cc2)n1` gave an IC50 [1] greater than 15800 nM.

With `Cc1cc2c(C#Cc3cccnc3)nc(C)cn2c1` the IC50 [1] was 2000 nM.

In the case of `Cc1cn2cccc2c(C#Cc2ccc(Br)cc2)n1`, the IC50 [1] is reported as greater than 12600 nM.

With `Cc1cn2cc(C(F)(F)F)cc2c(C#Cc2cccc(Br)c2)n1` the IC50 [1] was 25.1 nM.

For `Cc1cn2cc(C(F)(F)F)cc2c(C#Cc2cccc(C(=O)O)c2)n1`, the IC50 [1] was greater than 12600 nM.

In the case of `Cc1cn2cc(C(F)(F)F)cc2c(C#Cc2cccnc2)n1`, the IC50 [1] is reported as 501 nM.

In the case of `Cc1cn2cc(C(F)(F)F)cc2c(C#Cc2ccc(F)cc2F)n1`, the IC50 [1] is reported as greater than 15800 nM.

`Cc1cc2c(C#Cc3ccccc3)nc(C)cn2c1` showed an IC50 [1] of 50.1 nM.

`Cc1cn2cc(C(F)(F)F)cc2c(C#Cc2cccc(-c3ccoc3)c2)n1` showed an IC50 [1] of 10000 nM.

`Cc1cn2cc(C(=O)N3CCCC3)cc2c(C#Cc2ccsc2)n1` showed an IC50 [1] of 20 nM.

`Cc1cn2cc(C(N)=O)cc2c(C#Cc2ccccc2F)n1` showed an IC50 [1] of 501 nM.

Molecule `Cc1cn2cc(C(=O)N3CCN(C)CC3)cc2c(C#Cc2ccsc2)n1` has an IC50 [1] of 158 nM.

`Cc1cn2cc(CN3CCNC(=O)C3)cc2c(C#Cc2ccccc2)n1` gave an IC50 [1] of 200 nM.

In the case of `CCOC(=O)c1cc2c(C#Cc3ccc(C#N)cc3)nc(C)cn2c1`, the IC50 [1] is reported as greater than 15800 nM.

Work on `Cc1cn2cc(C(F)(F)F)cc2c(C#Cc2cccc(-c3c(C)noc3C)c2)n1` yielded an IC50 [1] greater than 12600 nM.

In the case of `Cc1cccc(C#Cc2ccccc2)n1`, the solubility [2] is reported as 70 µg/mL (≈ 362 µM).
